These results are taken from ChEMBL document CHEMBL1137449, “A refined agonist pharmacophore for protease activated receptor 2” (Bioorg Med Chem Lett, 2007).

pEC50: −log10 of the molar value. Square brackets hold non-standard residues; d marks the D form. Peptide text beside a SMILES is read from it. * marks the point of attachment. Tyr(3,5-(NO2)2) = N[C@@H](Cc1cc([N+](=O)[O-])c(O)c([N+](=O)[O-])c1)C(=O)O; X1 = CC[C@H](C)[C@H](N)C(=O)NC(=O)[C@H](Cc1ccc([N+](=O)[O-])cc1)N*; Tyr(3-NO2) = N[C@@H](Cc1ccc(O)c([N+](=O)[O-])c1)C(=O)O; Phe(4-COOH) = N[C@@H](Cc1ccc(C(=O)O)cc1)C(=O)O; Phe(3-CN) = N#Cc1cccc(C[C@H](N)C(=O)O)c1; Phe(3-OMe) = COc1cccc(C[C@H](N)C(=O)O)c1; Phe(4-CN) = N#Cc1ccc(C[C@H](N)C(=O)O)cc1; hTyr = N[C@@H](CCc1ccc(O)cc1)C(=O)O; hPhe = N[C@@H](CCc1ccccc1)C(=O)O; 3Pal = N[C@@H](Cc1cccnc1)C(=O)O; Cha = N[C@@H](CC1CCCCC1)C(=O)O; 2Furoyl = O=C(c1ccco1)*

The target in the assay is T1, Proteinase-activated receptor 2 (Homo sapiens, UniProt P55085).
T1 sequence (P55085 whole entry): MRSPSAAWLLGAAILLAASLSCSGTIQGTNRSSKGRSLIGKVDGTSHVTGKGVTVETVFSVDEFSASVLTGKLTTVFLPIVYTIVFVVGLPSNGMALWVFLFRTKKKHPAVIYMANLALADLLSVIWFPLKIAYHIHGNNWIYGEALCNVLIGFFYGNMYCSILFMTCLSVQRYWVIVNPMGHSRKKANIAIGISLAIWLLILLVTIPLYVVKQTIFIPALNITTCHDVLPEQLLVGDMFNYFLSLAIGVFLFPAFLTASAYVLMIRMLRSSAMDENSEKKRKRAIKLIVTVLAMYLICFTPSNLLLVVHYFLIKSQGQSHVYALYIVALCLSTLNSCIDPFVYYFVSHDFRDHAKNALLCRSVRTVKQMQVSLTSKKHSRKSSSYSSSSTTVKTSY
The assay can be described thus: Agonist activity at PAR2 expressed in human HT29 cells assessed as intracellular calcium release. In kind it is functional, cell-based, HT-29. Background: Calcium flux is commonly read through the fluorescence of an indicator in the cells.

In general, pEC50 refers to −log10 of the EC50, conventionally taken in molar units. `CC[C@H](C)[C@H](NC(=O)[C@H](Cc1ccccc1)NC(=O)[C@H](CCCNC(=N)N)NC(=O)CNC(=O)[C@@H](NC(=O)[C@H](CC(C)C)NC(=O)[C@@H](N)CO)[C@@H](C)CC)C(N)=O` (H-SLIGRFI-NH2): the negative-log EC50 (pEC50) is 6.00.
Take `CC[C@H](C)[C@H](NC(=O)[C@H](Cc1cccc(C#N)c1)NC(=O)[C@H](CCCNC(=N)N)NC(=O)CNC(=O)[C@@H](NC(=O)[C@H](CC(C)C)NC(=O)[C@@H](N)CO)[C@@H](C)CC)C(N)=O` (H-SLIGR[Phe(3-CN)]I-NH2): the pEC50 was 5.77.
Next, `CC[C@H](C)[C@H](NC(=O)[C@H](Cc1ccc(C(=O)O)cc1)NC(=O)[C@H](CCCNC(=N)N)NC(=O)CNC(=O)[C@@H](NC(=O)[C@H](CC(C)C)NC(=O)[C@@H](N)CO)[C@@H](C)CC)C(N)=O` (H-SLIGR[Phe(4-COOH)]I-NH2): 5.30.
Consider `CC[C@H](C)[C@H](NC(=O)[C@H](CCc1ccc(O)cc1)NC(=O)[C@H](CCCNC(=N)N)NC(=O)CNC(=O)[C@@H](NC(=O)[C@H](CC(C)C)NC(=O)[C@@H](N)CO)[C@@H](C)CC)C(N)=O` (H-SLIGR[hTyr]I-NH2), for which the pEC50 was 5.52.
As for `CC[C@H](C)[C@H](NC(=O)[C@H](Cc1ccc(C#N)cc1)NC(=O)[C@H](CCCNC(=N)N)NC(=O)CNC(=O)[C@@H](NC(=O)[C@H](CC(C)C)NC(=O)[C@@H](N)CO)[C@@H](C)CC)C(N)=O` (H-SLIGR[Phe(4-CN)]I-NH2), the pEC50 is 6.05.
Next, `CC[C@H](C)[C@H](NC(=O)[C@H](Cc1ccc(O)cc1)NC(=O)[C@H](CCCN=C(N)N)NC(=O)CNC(=O)[C@@H](NC(=O)[C@H](CC(C)C)NC(=O)[C@@H](N)CO)[C@@H](C)CC)C(N)=O` (H-SLIGRYI-NH2): 6.40.
To `CC[C@H](C)[C@H](NC(=O)[C@H](CC(C)C)NC(=O)[C@@H](N)CO)C(=O)NCC(=O)N[C@@H](CCCNC(=N)N)C(=O)N[C@@H](CC(C)C)C(=O)N[C@@H](CC(C)C)C(N)=O` (H-SLIGRLL-NH2) belongs 5.92; to `CC[C@H](C)[C@H](NC(=O)[C@H](CC(C)C)NC(=O)[C@@H](N)CO)C(=O)NCC(=O)N[C@@H](CCCNC(=N)N)C(=O)N[C@@H](CC(C)C)C(=O)N[C@@H](CC1CCCCC1)C(N)=O` (H-SLIGRL[Cha]-NH2), 5.44; to `CC[C@H](C)[C@H](NC(=O)[C@H](CC(C)C)NC(=O)[C@@H](N)CO)C(=O)NCC(=O)N[C@@H](CCCNC(=N)N)C(=O)N[C@@H](CC(C)C)C(=O)N[C@@H](CCc1ccccc1)C(N)=O` (H-SLIGRL[hPhe]-NH2), 6.00.
To `CC[C@H](C)[C@H](NC(=O)[C@H](Cc1ccc(O)c([N+](=O)[O-])c1)NC(=O)[C@H](CCCNC(=N)N)NC(=O)CNC(=O)[C@@H](NC(=O)[C@H](CC(C)C)NC(=O)[C@@H](N)CO)[C@@H](C)CC)C(N)=O` (H-SLIGR[Tyr(3-NO2)]I-NH2) belongs 5.85; to `CC[C@H](C)[C@H](NC(=O)[C@H](Cc1cc([N+](=O)[O-])c(O)c([N+](=O)[O-])c1)NC(=O)[C@H](CCCNC(=N)N)NC(=O)CNC(=O)[C@@H](NC(=O)[C@H](CC(C)C)NC(=O)[C@@H](N)CO)[C@@H](C)CC)C(N)=O` (H-SLIGR[Tyr(3,5-(NO2)2)]I-NH2), 5.85.
Regarding `CC[C@H](C)[C@H](N)C(=O)NC(=O)[C@H](Cc1ccc([N+](=O)[O-])cc1)NC(=O)[C@H](CCCNC(=N)N)NC(=O)CNC(=O)[C@@H](NC(=O)[C@H](CC(C)C)NC(=O)c1ccco1)[C@@H](C)CC` (2Furoyl-LIGR-X1), the negative logarithm of the EC50 (pEC50) was 6.70.
As to `CC[C@H](C)[C@H](NC(=O)[C@H](Cc1cccnc1)NC(=O)[C@H](CCCNC(=N)N)NC(=O)CNC(=O)[C@@H](NC(=O)[C@H](CC(C)C)NC(=O)[C@@H](N)CO)[C@@H](C)CC)C(N)=O` (H-SLIGR[3Pal]I-NH2), the negative logarithm of the EC50 (pEC50) was 5.96.
As for `CC[C@H](C)[C@H](NC(=O)[C@H](Cc1cccc(OC)c1)NC(=O)[C@H](CCCNC(=N)N)NC(=O)CNC(=O)[C@@H](NC(=O)[C@H](CC(C)C)NC(=O)[C@@H](N)CO)[C@@H](C)CC)C(N)=O` (H-SLIGR[Phe(3-OMe)]I-NH2), the negative logarithm of the EC50 (pEC50) is 5.48.
